For assay [1], the system named is murine spleen cells, LPS induced (B-cells). The assay is described as follows: LPS induced lymphocyte proliferation in mouse spleen cells in vitro. The conditions noted are these: for effect on B-cell response / LPS induced proliferation, in words: in vitro; for activity at 25 µg/mL: drug 25,000 ng/ml. Format: cell-based, mouse (Balb/C). The source says:
(§1) (1) Mitogen-(Lipopolysaccharide, LPS or Con A) induced lymphocyte proliferation using murine spleen cells (in vitro)
(§2) 1. […] LPS is a mitogen which acts preferentially on B-cells. […] Con A is considered a T-cell mitogen.
(§3) 1. Balb/C male mice, 7-8 weeks old, are used up to 20-24 weeks of age.
(§4) 2. The animals are sacrificed by cervical dislocation and the animals' left sides swabbed with 70% ethanol. An incision is made between the lower ribs and pelvis, laterally from front to back, and the skin retracted. Aseptic technique is to be observed from this point on.
(§5) 3. The spleen is gently removed with sterile forceps. […] When all spleens have been collected and cleaned they are placed in a second petri dish containing 3 ml cold RPMI.
(§6) 4. Spleen cell suspensions are prepared by gentle mincing of the tissue with a sterile blade and filtering through #100 stainless steel mesh.
(§7) 6. An aliquot of the above suspension is prepared for cell counting as follows: 0.1 ml of suspension is diluted to 1.0 ml with 3% acetic acid and let stand at room temperature for at least five minutes. The sample is then diluted 1:100 with "Isoton II" (Curtis-Matheson Co.) and counted in a coulter counter.
(§8) MURINE SPLENOCYTE STIMULATION WITH CONCANAVALIN A (CON A), LIPOPOLYSACCHARIDE (LPS), AND ALLOGENEIC SPLENOCYTES (LMC).
(§9) There is set forth below the standard procedure which should be modified according to the solubility and other properties of the particular compound tested.
(§10) Add ~10 ml RPMI to 1.79 g HEPES and vortex until completely dissolved. […] Allow to warm temperature before use.
6. LPS (Sigma, E, coli serotype #011:84)--~1 mg/ml. […] Remove ~10 ml for dissolving HEPES (0.358 g) and filter HEPES solution. Add four 25 mg bottles of LPS to remaining media and incubate at 37° C. for 1 hour. Filter through 0.22 μm filters, add filtered HEPES, aliquot in 2 ml and store at -70° C.
(§11) 8. Tritiated thymidine (^3 H-TdR, Schwartz-Mann, 6 Ci/mM). Remove a slightly larger volume of ^3 H-TdR than needed from vial with a 1 cc syringe and place volume in the cap of a small sterile plastic tube. […] Vortex thoroughly before adding to plates.
(§12) 1. Animals are sacrificed by cervical dislocation killing one from each group and processing the cells individually before killing the next animal. Swab each animal with 70% ethanol before surgery. […] Use 8 vertical strokes (or enough to break up all tissue) with Teflon-tipped homogenizer. Filter each sample through a 100 mesh screen into a 50 ml tube. […] After all samples have been spun, vortex each briefly and let sit for 1 hour. Vortex each sample ~5 seconds, waiting ~10 seconds between each sample. Let sit 5 minutes, then pipet cell suspension into 5 ml (12×75 mm) tube being careful not to remove any sediment. Remove 50 ul cell suspension using micropipetter, carefully wipe pipet tip with kimwipe and pipet into 20 ml Isoton in Coulter counter vial, rinsing pipet several times in the Isoton. Add 6 drops of CyMet and swirl vial to mix. Use the following Coulter counter settings: Amplification-1, Threshold-10, and Aperture Current-1. Clean counter with Isoterge the morning of experiment and count background before standardizing with CH 0.60 Hematology Controls. After cell counts are obtained, dilute to 6×10^6 cells/ml with supplemented RPMI and aliquot into 3 tubes for the 3 assays.
(§13) 1. Pipet 100 μl control media (supplemented RPMI) or appropriate dilution of mitogen (starting with lowest concentration) into microtiter plate using Titertek multi-channel pipetter. Place plates in 37° C. CO2 incubator with CO2 set at 0.5 after each plate has been pipetted. Pipet 100 μl responder cells into wells starting with most dilute mitogen concentration. Place plates in incubator as they are filled and after all plates are in incubator, let sit for 10-20 minutes. Wrap plates with plastic wrap, recover with top, replace in incubator, and reset CO2 to ~0.05. Save ~50 ml supplemented RPMI at 4° C. for thymidine dilution.

The test system of assay [2] is murine spleen cells, Con A induced (T-cells). The experiment in a line: Con A induced lymphocyte proliferation in mouse spleen cells in vitro. Format: cell-based, mouse (Balb/C). The note with it: for activity at 25 µg/mL: drug 25,000 ng/ml; for effect on Con A induced proliferation (T-cell response), in words: in vitro.
Text: as §1, §2, §3, §4, §5, §6, §7, §8, §9, §10
5. Con A (Calbiochem)--100 mg/ml NaCl injection solution (McGaw), filter, aliquot in 1 ml, and store at -70° C.
as §11, §12
as §13, with “dilution. After ~44 hours warm the RPMI to 37° C. in incubator. Dilute tritiated Thymidine 1:100 in warmed RPMI. Use Titertek to add 50 μl Thymidine to each well. Treat plates as above and incubate overnight (~18 hours).” for “dilution.”

Assay [3] deals with antibody production to sheep red blood cells (SRBC). The experiment in a line: antigen (SRBC) dependent antibody synthesis in vivo (IgM plaques). More on the design: species or system Balb/C mice. The conditions noted are these: for % change from control, antibody response to SRBC: Table X; for effect on antibody production in vivo, in words: SRBC immunized mice. As to the method:
(3) Antigen (sheep red blood cell, SRBC) dependent antibody synthesis (in vivo)
as §9
1. A solution containing 500 μg/ml NPT is prepared by adding a preweighed amount of the drup powder to sterile BPS (phosphate buffered saline) and sonicating the solution for 30 minutes.
1. NPT drug solution is made by dissolving 500 μg NPT per mil PBS.
1. A 1.4% suspension of agarose in PBS (7 g in 500 ml) is autoclaved for 15 min.
1. Mice are immunized as follows: sheep blood (sheep #23) is received weekly from Hyland labs. It is asceptically collected in two volumes of Alseviers to one volume of blood.
6. The cell count is determined and the stock solution is diluted to 4×10^7 cells/ml. This final suspension is used for immunization.
7. Each mouse is immunized by i.v. injection into the lateral tail vein (warmed in a 50° C. water bath for veinous dilation) with 0.1 ml SRBC (sheep red blood cell) suspensions; the final concentration of SRBC's is 4×10^6 per mouse.
1. Mice are treated by i.p. injection on days […], 1, 2, and 3. A syringe (1 cc) is fitted with a one-half inch, 26 gauge needle. The needle is introduced at a 45° angle along the right side of the linea alba. A 0.2 ml volume is given to both drug and control treated groups.
2. Drug groups are given 0.2 ml of a desired concentration NPT solution which, for a 20 g mouse, is […].
1. Spleens are removed asceptically and placed individually in Falcon #2025 tissue culture tubes containing 3 ml MEM. The tubes are then stored on ice.
2. Spleens are homogenized in the same tube with a teflon pestle attached to a G. K. Heller variable speed reversible motor connected with a G. K. Heller GT-21 motor controller setting #6.
6. The cell count is obtained and the stock suspension is diluted to 1×10^7 cells/ml. The Coulter counter threshhold is set at 10. Red cells are lysed with three drops of Zap isoton.
1. Thirty-five hundredths gram agarose and 0.53 grams MEM powder are placed into an Erlenmeyer flask. Fifty ml of distilled H2 O is then added to the flask.
1. Five ml sheep blood (same batch as used for immunization) is washed three times in PBS using an IEC Clinical Standard Centrifuge, speed #4 (2800 RPM) for 10 min.
1. Agar plates are removed from refrigerator and allowed to warm to room temperature. They are labeled in triplicate for each experimental group.
2. Agar-filled tubes are removed from the water bath. One-tenth of the 10% SRBC's and 0.1 ml spleen cell suspension are added to each agar tube. The tubes are agitated on a Vortex mixer.
3. The contents of the tubes are poured immediately into agar base plates and swirled until a smooth layer is formed. The plates are placed on a level surface until the agar solidifies.
4. The plates are incubated at 37° C. in a humidified atmosphere of 5% CO2 and 95% air for 90 min.
6. Plates are removed from incubator and 1 ml of the diluted complement is added to each plate.
7. Plates are then incubated another 30-45 minutes at 37° C. Plates are then removed from incubator and counted using oblique light.

For assay [4], the system named is splenocytes from athymic mice (theta positive cells). The assay is described as follows: induction of theta positive cells in splenocytes from athymic (nude) mice in vitro. Format: cell-based. The note with it: in vitro. From the text:
(4) Induction of theta positive cells in nude mice (in vitro).

[5] abbreviates: 0.05 mg/kg, *P ≤ 0.001 where starred.
[6] abbreviates: 0.5 mg/kg, *P ≤ 0.001 where starred.
The mark [7] stands for this setting: Mus musculus, B-cell, LPS 5 μg/ml, read-out: LPS D/C (maximum values).
Setting [8] is: Mus musculus, Con A .375 μg/ml, read-out: Con A D/C (maximum values).
Where [9] appears, read: 5.0 mg/kg, *P ≤ 0.001 where starred, NPT 16485 N.S.

“Also recorded” adds a separate entry of the source.

For the molecule `CSc1nc(O)c2nc3n(c2n1)CCS3` [NPT 16472, 3-hydroxy-5-methylmercapto-7,8-dihydrothiazolo-[3,2e]-purine], the activity at 0.01 µg/mL worked out at 131% in assay [1] (Mus musculus, B-cell, drug 10 ng/ml, LPS 5 μg/ml, read-out: LPS D/C (maximum values)) and 100% in assay [2] (Mus musculus, drug 10 ng/ml, Con A .375 μg/ml, read-out: Con A D/C (maximum values)). The “effect on B-cell response / LPS induced proliferation, in words” value in assay [1] is on record as “stimulating the B-cell response”. Besides, in assay [3] (dose = 0.035 mg/kg, P < 0.05), the “% change from control, antibody response to SRBC” value (shortened to “% change from control”) was “+13%”.

Consider `O=c1c2nc3n(c2nc2n1CCS2)CCS3` [NPT 16449, 6-hydroxy-Bis-(3,4-dihydrothiazolo-8,9-dihydrothiazolo)-[3,2e-2,3f]purine], for which the activity at 21 µg/mL was determined as 157% in assay [1] (Mus musculus, B-cell, drug 21,000 ng/ml, LPS 5 μg/ml, read-out: LPS D/C (maximum values)) and 100% in assay [2] (Mus musculus, drug 21,000 ng/ml, Con A .375 μg/ml, read-out: Con A D/C (maximum values)). For the same molecule, the results for the “effect on B-cell response / LPS induced proliferation, in words” value in assay [1] and in assay [1] (listed as IVa) were “enhance B-cell proliferation” and “stimulating the B-cell response”, respectively. The “effect on antibody production in vivo, in words” value (“effect on antibody production” for short) in assay [3] is recorded as “enhancement of production of specific antibodies in vivo”. In addition, the entries for the “% change from control” value in assay [3] (setting [5]) and in assay [3] (setting [6]) were “+183%” and “+59%”, respectively.

For `Oc1ncnc2nc3n(c12)CCS3` [NPT 16485, 6-hydroxy-7,8-dihydrothiazolo-[2,3f]-purine], the activity at 25 µg/mL amounted to 185% in assay [1] (setting [7]) and 118% in assay [2] (setting [8]). Moreover, the “effect on B-cell response / LPS induced proliferation, in words” value in assay [1] is listed as “enhance B-cell proliferation”; in assay [1] (listed as IIa) it was “stimulating the B-cell response”. Also, the “effect on antibody production” value in assay [3] is “enhancement of production of specific antibodies in vivo”. Also, the “% change from control” value was “+28%” in assay [3] (setting [5]), “+134%” in assay [3] (setting [6]) and “+1.7%” in assay [3] (setting [9]).

Consider `Oc1c2ncnc-2nc2n1CCS2` [NPT 16450, 6-hydroxy-7,8-dihydrothiazolo-[3,2a]-purine], for which the activity at 25 µg/mL in assay [1] (setting [7]) is 118%; in assay [2] (setting [8]), 107%. For the same molecule, the “% change from control” value in assay [3] (setting [5]) is -64%; in assay [3] (setting [6]), “+15%”; in assay [3] (setting [9]), “+36%”.

On to `Nc1ncnc2c1nc1n2CCS1` [NPT 16422, 3-amino-7,8-dihydrothiazolo-[3,2e]-purine], for which the activity at 25 µg/mL in assay [1] (setting [7]) is 37%; in assay [2] (setting [8]) it was 20%. Also, the “effect on Con A induced proliferation (T-cell response), in words” value in assay [2] is “potent inhibitors; also recorded: capable of inhibiting”. The “effect on antibody production” value in assay [3] was “capable of inhibiting”.

Regarding `c1ccc([C@H]2CN3CCSC3=N2)cc1` [Levamisole, reference compound], in assay [4], the “production of theta positive (T) cells, in words” value is given as “does not possess this property”.

Take `CSc1ncnc2c1nc1n2CCS1` [NPT 16439, 3-methylmercapto-7,8-dihydrothiazolo-[3,2e]-purine]: the activity at 4.5 µg/mL is 100% in assay [1] (Mus musculus, B-cell, drug 4,500 ng/ml, LPS 5 μg/ml, read-out: LPS D/C (maximum values)) and 57% in assay [2] (Mus musculus, drug 4,500 ng/ml, Con A .375 μg/ml, read-out: Con A D/C (maximum values)). The entries for the “effect on Con A induced proliferation (T-cell response), in words” value in assay [2], in assay [2] (listed as 16439) and in assay [2] (listed as Ib) were “potent inhibitors”, “capable of inhibiting” and “inhibiting the T-cell response”, respectively. Also, the “effect on antibody production” value in assay [3] is recorded as “potent inhibitor of antibody production”; in assay [3] (listed as 16439), “capable of inhibiting”. In addition, the figures for the “% change from control” value in assay [3] (setting [5]) and in assay [3] (dose = 0.2 mg/kg) were -40% and -63%, respectively.

Source of the values: patent US4510144A, “Methods of imparting immunomodulating activity with dihydrothiazolo purine derivatives” (Newport Pharmaceuticals International, priority 1982, dated 1985).
